Assay results taken from the supplement of paper PMC10307832.

Legend:
Assay in all cases: relative viability (nuclei count vs DMSO), 5 days (fraction); higher = more cells survive
KIN001-266 + Phenformin = compound: CCN1CCC(CC1)N2C=C(N=N2)CNC3=CC4=C(C(=CN=C4C(=C3)Cl)C#N)NC5=CC(=C(C=C5)F)Cl [KIN001-266] + N=C(N)NC(=N)NCCc1ccccc1 [Phenformin] (partner 250 µM)
In short: (§1)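 Values are medians from duplicate plates. Each reflects relative viability, defined as the nuclei count of treated wells over that of vehicle wells. Lung cancer cell lines in 1536-well plates were pin-tool dosed one day after seeding with one drug alone or with a fixed anchor-drug dose plus five library-drug doses (not always all listed) in √10 steps, then fixed, stained and imaged at 4× after 5 days.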

KIN001-266 + Olaparib = compound: CCN1CCC(CC1)N2C=C(N=N2)CNC3=CC4=C(C(=CN=C4C(=C3)Cl)C#N)NC5=CC(=C(C=C5)F)Cl [KIN001-266] + O=C(c1cc(Cc2n[nH]c(=O)c3ccccc23)ccc1F)N1CCN(C(=O)C2CC2)CC1 [Olaparib] (partner 8 µM)
In short: as §1

KIN001-266 + Trametinib = compound: CCN1CCC(CC1)N2C=C(N=N2)CNC3=CC4=C(C(=CN=C4C(=C3)Cl)C#N)NC5=CC(=C(C=C5)F)Cl [KIN001-266] + CC(=O)Nc1cccc(-n2c(=O)n(C3CC3)c(=O)c3c(Nc4ccc(I)cc4F)n(C)c(=O)c(C)c32)c1 [Trametinib] (partner 0.02 µM)
In short: as §1

KIN001-266 = compound: CCN1CCC(CC1)N2C=C(N=N2)CNC3=CC4=C(C(=CN=C4C(=C3)Cl)C#N)NC5=CC(=C(C=C5)F)Cl [KIN001-266]
In short: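 Only plates meeting two conditions passed: control CV below 25% and at least one doubling. Lung cancer cell lines, kept overnight at 37 °C in 1536-well plates, were pinned with five library-drug doses (not always all listed) √10 apart on vehicle-anchored plates and grown 5 days without medium change. A one-step fix, permeabilisation and Hoechst stain preceded 4× imaging and MetaXpress nuclear counting. Viability equals treated-well nuclei divided by vehicle-well nuclei, as the median over plates.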

Cell Line | relative viability (KIN001-266 + Phenformin; first compound 0.08 µM) | relative viability (KIN001-266 + Phenformin; first compound 0.253 µM) | relative viability (KIN001-266 + Phenformin; first compound 0.8 µM) | relative viability (KIN001-266 + Phenformin; first compound 2.53 µM) | relative viability (KIN001-266 + Phenformin; first compound 8 µM) | relative viability (KIN001-266 + Olaparib; first compound 0.08 µM) | relative viability (KIN001-266 + Olaparib; first compound 0.253 µM) | relative viability (KIN001-266 + Olaparib; first compound 0.8 µM) | relative viability (KIN001-266 + Olaparib; first compound 2.53 µM) | relative viability (KIN001-266 + Olaparib; first compound 8 µM) | relative viability (KIN001-266 + Trametinib; first compound 0.08 µM) | relative viability (KIN001-266 + Trametinib; first compound 0.253 µM) | relative viability (KIN001-266 + Trametinib; first compound 0.8 µM) | relative viability (KIN001-266 + Trametinib; first compound 2.53 µM) | relative viability (KIN001-266 + Trametinib; first compound 8 µM) | relative viability (KIN001-266; 0.08 µM) | relative viability (KIN001-266; 0.253 µM) | relative viability (KIN001-266; 0.8 µM) | relative viability (KIN001-266; 2.53 µM) | relative viability (KIN001-266; 8 µM)
COR-L 105 | 0.48 | 0.641 | 0.534 | 0.641 | 0.431 | 0.729 | 0.619 | 0.651 | 0.521 | 0.566 | 0.42 | 0.517 | 0.417 | 0.43 | 0.455 | 0.942 | 0.967 | 0.963 | 1 | 0.902
NCI-H441 | 0.937 | 0.837 | 0.806 | 0.805 | 0.641 | 0.504 | 0.645 | 0.562 | 0.455 | 0.444 | 0.455 | 0.525 | 0.489 | 0.471 | 0.399 | 1.11 | 1.07 | 1.1 | 0.939 | 0.789
NCI-H2126 | 0.535 | 0.519 | 0.546 | 0.555 | 0.5 | 0.896 | 0.925 | 0.943 | 0.848 | 0.842 | 0.583 | 0.554 | 0.621 | 0.568 | 0.518 | 1.01 | 1.03 | 0.978 | 0.925 | 0.975
HCC-44 | 0.229 | 0.185 | 0.197 | 0.26 | 0.3 | 0.994 | 0.959 | 0.944 | 0.884 | 0.993 | 1.13 | 1.06 | 1.07 | 1.07 | 1.16 | 0.967 | 0.994 | 0.983 | 0.968 | 1.08
NCI-H460 | 0.499 | 0.506 | 0.528 | 0.475 | 0.433 | 0.418 | 0.447 | 0.466 | 0.308 | 0.409 | 0.204 | 0.225 | 0.121 | 0.135 | 0.108 | 1.01 | 1.01 | 0.967 | 0.951 | 1.02
SK-LU-1 | 0.561 | 0.47 | 0.526 | 0.439 | 0.394 | 0.557 | 0.427 | 0.489 | 0.373 | 0.416 | 0.518 | 0.451 | 0.437 | 0.369 | 0.429 | 1.09 | 1 | 0.987 | 0.886 | 0.709
NCI-H322M | 0.841 | 0.835 | 0.822 | 0.743 | 0.747 | 0.802 | 0.737 | 0.764 | 0.72 | 0.698 | 0.487 | 0.515 | 0.5 | 0.479 | 0.497 | 1.04 | 1 | 0.928 | 0.785 | 0.779
EKVX | 0.234 | 0.237 | 0.2 | 0.243 | 0.225 | 0.914 | 0.899 | 0.844 | 0.78 | 0.865 | 0.336 | 0.312 | 0.303 | 0.412 | 0.344 | 0.989 | 1 | 0.841 | 0.868 | 0.941
NCI-H1734 | 0.416 | 0.387 | 0.405 | 0.357 | 0.321 | 0.719 | 0.6 | 0.505 | 0.551 | 0.425 | 0.671 | 0.715 | 0.606 | 0.672 | 0.608 | 1.01 | 1.01 | 1.08 | 0.858 | 0.855
SW 900 | 0.617 | 0.564 | 0.537 | 0.564 | 0.357 | 0.964 | 0.88 | 0.877 | 0.821 | 0.335 | 0.83 | 0.727 | 1.02 | 0.812 | 0.324 | 1.02 | 0.873 | 0.777 | 0.848 | 0.624
NCI-H520 | 0.793 | 0.633 | 0.706 | 0.376 | 0.58 | 0.339 | 0.299 | 0.374 | 0.267 | 0.239 | 0.727 | 0.628 | 0.561 | 0.624 | 0.645 | 1.01 | 1.05 | 1.08 | 0.943 | 1.01
EPLC-272H | 0.334 | 0.317 | 0.274 | 0.234 | 0.239 | 0.885 | 0.869 | 1.08 | 0.643 | 0.273 | 0.295 | 0.273 | 0.284 | 0.27 | 0.275 | 1.08 | 1 | 0.915 | 0.893 | 0.686
UMC-11 | 0.336 | 0.381 | 0.333 | 0.316 | 0.251 | 0.351 | 0.515 | 0.398 | 0.31 | 0.319 | 0.741 | 0.711 | 0.718 | 0.506 | 0.774 | 0.975 | 0.981 | 1 | 0.918 | 0.857
NCI-H1792 | 0.26 | 0.223 | 0.17 | 0.123 | 0.265 | 0.384 | 0.418 | 0.485 | 0.369 | 0.399 | 0.372 | 0.341 | 0.43 | 0.416 | 0.476 | 0.987 | 0.919 | 0.856 | 0.908 | 1.01
NCI-H1993 | 0.505 | 0.493 | 0.506 | 0.49 | 0.575 | 1.04 | 0.937 | 1.16 | 0.887 | 0.73 | 0.559 | 0.52 | 0.478 | 0.475 | 0.522 | 0.971 | 0.916 | 0.815 | 0.81 | 0.724
